Assay results published in paper PMC7865627, “Small Molecule-Based Prodrug Targeting Prostate Specific Membrane Antigen for the Treatment of Prostate Cancer” (Cancers, 2021).
Entries after “also recorded” stand apart in the source; their conditions may differ. *1 amine or outer side, *2 acyl side, *3 side chain or, on linkers, in order; H or OH if unused. Where a SMILES comes first, the peptide text is derived from it. Bridges are numbered along the chain shown (N, C = ends). Roman numbers before positions name the chains, in order. [ ]: non-standard residue; d: D form. The star is where a group is joined. Hexanoyl(6-succinimido-3yl) = O=C1CC([*:1])C(=O)N1CCCCCC(=O)[*:2]; Dolaproine = CO[C@@H]([C@@H]1CCCN1)[C@@H](C)C(=O)O; Dil = CC[C@H](C)[C@H](NC)[C@@H](CC(=O)O)OC; γGlu = O=C(O)[C@H](CCC(=O)[*:2])N[*:1]; PABC = O=C(OCc1ccc(N[*:1])cc1)[*:2]; X2 = C[C@@H](N*)[C@@H](O)c1ccccc1; X1 = O=C(C1CCC(CN[*:1])CC1)[*:2]; Cit = NC(=O)NCCC[C@H](N)C(=O)O; NMeV = CN[C@H](C(=O)O)C(C)C; CO = O=C([*:1])[*:2]; Ahx = NCCCCCC(=O)O

Legend:
orthotopic PC3pip tumors = experiment: Orthotopic PC3pip survival study; format: in vivo, mouse; conditions: 3860 nmol/kg (so in the source) i.v. every 4 days, five doses, n = 5
Method: Surgical orthotopic tumor implantation was performed as previously reported. Tumor growth/size was monitored using Siemens Acuson S2000 (Siemens AG. Munich, Germany) ultrasound scanner. When the tumors were at the appropriate size (5 mm diameter as measured by ultrasound, approximately 2 weeks) animals were given PSMA-1-VcMMAE, or PBS every 4 days with a total of five doses. Tumors were monitored every other day by ultrasound. Each group utilized five mice.

[1] = test system: metastatic PC3pip tumor (intracardiac GFP-PC3pip cells); experiment: Metastatic PC3pip survival study; format: in vivo, mouse; conditions: 1910 nmol/kg every 4 days, five doses, 90 days, n = 8
Method: Male athymic nude mice were injected into the left ventricle of the heart with 1 × 10^5 GFP labeled PC3pip cells to generate bone metastasis. One week later, mice received 1910 nmol/kg of PSMA-1-VcMMAE or PBS every 4 days with a total of five doses and the progression of disease was monitored by GFP imaging. Eight mice were used in each group.

[2] = In vitro cytotoxicity assay (CCK-8), PC3pip; format: cell-based, human; conditions: human; for EC50 at 72 h: PC3pip cells
Method: (§1) Cells (1000/well) were seeded in 96-well culture plates the day before treatment.

[3] = test system: heterotopic PC3pip tumors; experiment: Heterotopic PC3pip tumor survival study; format: in vivo
Method: Male athymic nude mice were implanted subcutaneously with 1 × 10^6 of PC3pip cells 100 μL of matrigel. When tumor size reached approximately 100 mm^3 (tumor volume = Length × width^2/2), mice received drugs through tail vein injection every 4 days with a total of five doses. Mice were treated every 4 days with a total of five doses. Animals were weighed and tumor size measured every other day for 90 days. Cures were defined as no tumor present at end of the 90-day study. When tumors became too large or animals were moribund they were euthanized. Five mice were used in each group.

heterotopic C4-2 tumors = experiment: Heterotopic C4-2 tumor study; format: in vivo, mouse; conditions: 1910 nmol/kg every 4 days, five doses, 7 animals
Excerpt: To show versatility of the antitumor activity of PSMA-1-VcMMAE, we also tested it in mice bearing heterotopic C4-2 tumors, which are androgen-independent prostate cancer cells endogenously expressing PSMA. […]
drugs through tail vein inject every 4 days with total of 5 injections as indicated by the red arrows.
[…] Values are mean ± SD of 5 animals. The plots stopped when animals died during the experiments since values are represent as mean ± SD of 5 animals.
(nmol/kg) Tumor Growth (nmol/kg) Therapeutic Index *
*: Therapeutic index is defined by MTD/effective dose.
PC3flu tumors. Treatment were scheduled every 4 days with a total of five doses as indicated by the […]
red arrow. […] For tumor growth curves and body weight curves, values are mean ± SD of 5 animals. The plots stopped when animals died during the experiments since values are represent as mean ± SD of 5 animals. (A) Tumor growth curves of mice treated with 955 nmol/kg of PSMA-1-VcMMAE. (B) Comparison of the potency of PSMA-1-VcMMAE to treat PC3pip (solid line) and PC3flu tumors (dashed line) at the dose of 955 nmol/kg. (☀, PC3pip treated versus PC3pip PBS, p = 0.0005; ★, PC3pip treated versus PC3flu PBS, p = 0.0242; ♣, PC3pip treated versus PC3flu treated, p = 0.0493). (C) Body weight changes of mice treated with 955 nmol/kg of PSMA-1-VcMMAE.
Figure 9. PSMA-1-VcMMAE was effective in heterotopic C4-2 tumor model. […]

[4] = Stability on incubation in PBS (without cathepsin), HPLC; format: in vitro ADME; conditions: incubation with PBS without cathepsin, triplicate
Method: (§2) Cathepsin is a prevalent protease that PSMA internalized ligands will encounter as they enter into late endosomes/lysosomes. To investigate if PSMA-targeted drug conjugates were cleavable by cathepsin B, the two conjugates were incubated with or without cathepsin protease and chromatographed by high performance liquid chromatography (HPLC).
(§3) At different time intervals, 40 μL of the solution was taken out into tubes loaded with 1 μL of 1 mM E64 protease inhibitor. […] Studies were performed in triplicate.

[5] = In vitro cytotoxicity assay (CCK-8), PC3flu; format: cell-based, human; conditions: human, PC3flu cells
Method: as §1

human liver cathepsin B = biological target: T1, human liver cathepsin B (Homo sapiens, UniProt P07858); experiment: Enzymatic cleavage by cathepsin B, HPLC analysis; format: in vitro ADME; conditions: activated human liver cathepsin B, 2 μM conjugate, 37 °C, triplicate
T1 construct: purchased Anthens Research and Technology, Anthens, AL, USA (so in the source); host or cells: human liver (tissue-derived enzyme)
Method: as §2, §3

PSMA = biological target: T2, PSMA (Homo sapiens, UniProt Q04609); experiment: Competitive binding assay against 3H-ZJ24 on PC3pip cells
T2 construct: expressed in transfected cells; host or cells: PC3pip cells (PC3 retrovirally transfected with PSMA), from Dr. Michel Sadelain, MSKCC
T2 sequence (Q04609 whole entry): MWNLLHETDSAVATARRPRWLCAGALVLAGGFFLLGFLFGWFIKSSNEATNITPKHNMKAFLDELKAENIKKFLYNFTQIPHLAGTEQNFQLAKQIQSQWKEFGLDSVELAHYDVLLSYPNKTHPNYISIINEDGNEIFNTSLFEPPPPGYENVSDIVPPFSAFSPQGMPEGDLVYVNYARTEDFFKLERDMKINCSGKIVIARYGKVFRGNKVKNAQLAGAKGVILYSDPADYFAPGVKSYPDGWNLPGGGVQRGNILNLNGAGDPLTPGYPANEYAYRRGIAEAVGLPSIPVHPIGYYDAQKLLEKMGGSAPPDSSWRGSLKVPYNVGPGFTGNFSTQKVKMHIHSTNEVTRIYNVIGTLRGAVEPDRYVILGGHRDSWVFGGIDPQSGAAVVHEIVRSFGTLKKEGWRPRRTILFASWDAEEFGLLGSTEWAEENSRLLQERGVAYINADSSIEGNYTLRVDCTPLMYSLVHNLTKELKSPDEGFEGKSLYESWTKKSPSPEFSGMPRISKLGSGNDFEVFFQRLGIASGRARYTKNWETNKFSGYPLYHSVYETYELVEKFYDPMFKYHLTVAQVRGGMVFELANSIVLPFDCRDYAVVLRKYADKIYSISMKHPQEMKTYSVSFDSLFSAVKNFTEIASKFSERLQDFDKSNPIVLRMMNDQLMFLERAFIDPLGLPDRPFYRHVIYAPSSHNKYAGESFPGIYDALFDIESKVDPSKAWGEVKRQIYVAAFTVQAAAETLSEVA
Method: The assay was carried as previously reported by incubation PC3pip cells with different concentrations of drug conjugates in the presence of 10 nM N-[N-[(S)-1,3-dicarboxypropyl]carbamoyl]-S-[^3H]-methyl-L-cysteine (^3H-ZJ24) (GE Healthcare Life Sciences, Chicago, IL, USA). Radioactivity of cell pellet was counted by scintillation counter. The concentration required to inhibit 50% of binding was determined (IC50) by GraphPad Prism 3.0.

[6] = 3820 nmol/kg i.v. every 4 days, five doses, n = 5

Question: What does the source list for CC[C@H](C)[C@@H]([C@@H](CC(=O)N1CCC[C@H]1[C@H](OC)[C@@H](C)C(=O)N[C@H](C)[C@@H](O)c1ccccc1)OC)N(C)C(=O)[C@@H](NC(=O)[C@H](C(C)C)N(C)C(=O)OCc1ccc(NC(=O)[C@H](CCCNC(N)=O)NC(=O)[C@@H](NC(=O)CCCCCN2C(=O)CC(SC[C@H](NC(=O)[C@@H](CCC(=O)O)NC(=O)[C@@H](CCC(=O)O)NC(=O)[C@@H](CCC(=O)O)NC(=O)CCCCCNC(=O)C3CCC(CNC(=O)CC[C@H](NC(=O)N[C@@H](CCC(=O)O)C(=O)O)C(=O)O)CC3)C(=O)NCCCCCC(=O)N[C@@H](CCCCN)C(N)=O)C2=O)C(C)C)cc1)C(C)C (some centres unmarked) [PSMA-1-VcMMAE] (I: {Glu-CO-γGlu}-[X1][Ahx][dE][dE][dE]C[Ahx]K-NH2 / II: V[Cit][PABC][NMeV]V[Dil][Dolaproine]-X2; linker I:6-II:N via Hexanoyl(6-succinimido-3yl))?
Answer: tumor free mice, orthotopic PC3pip, 3860 nmol/kg (orthotopic PC3pip tumors): one; cures, metastatic PC3pip [1]: six out of eight; cure rate, metastatic PC3pip ([1]; started 1 week after cardiac injection): 75%; selectivity ratio at 72 h ([2]; PC3pip and PC3flu cells, more potent for PC3pip than PC3flu, read-out: selectivity, differential cytotoxicity ratio between PC3pip and PC3flu cells): 48; EC50 at 72 h ([2]; 72 h, CCK-8, in the presence of 10 μM of PSMA-1, read-out: EC50, cytotoxicity to PC3pip cells + PSMA-1): 241 ± 8.6 nM; EC50 at 72 h ([2]; 72 h, CCK-8, in the presence of protease inhibitor E64 (50 μM given for the Cy5.5 conjugates), read-out: EC50, cytotoxicity to PC3pip cells + E64): 31.1 ± 2.11 nM; EC50 at 72 h ([2]; 72 h incubation, CCK-8, mean ± SD, read-out: EC50, cytotoxicity to PC3pip cells): 4.64 ± 0.83 nM; tumor growth (in words), 191 nmol/kg ([3]; 191 nmol/kg i.v. every 4 days, five doses, n = 5): significant tumor inhibition; cures, 955 nmol/kg ([3]; 955 nmol/kg i.v. every 4 days, five doses, n = 5): 2/5; histology (H&E) of major organs (in words) ([3]; 3820 nmol/kg every 4 days, five injections, day 21): no noticeable histological changes; also recorded: no histological damage in salivary gland; cure rate, 3820 nmol/kg [3, 6]: 60%; cures (tumor-free mice at 90 days), 3820 nmol/kg [3, 6]: three out of five; survival over 90-day experimental time, 3820 nmol/kg [3, 6]: all five mice survived; therapeutic index ([3]; MTD/effective dose): 20; lowest dose to effectively inhibit tumor growth ([3]; i.v. every 4 days, five doses, tumor growth inhibited for 30 days, n = 5): 382 nmol/kg; body weight (in words) ([3]; up to 3820 nmol/kg i.v. every 4 days, five doses): No body weight loss; cures, C4-2 tumors (heterotopic C4-2 tumors): 2 / 7; stability in PBS (in words) [4]: stable; EC50 at 72 h ([5]; 72 h, CCK-8, in the presence of 10 μM of PSMA-1, read-out: EC50, cytotoxicity to PC3flu cells + PSMA-1): 261 ± 5.6 nM; EC50 at 72 h ([5]; 72 h, CCK-8, in the presence of protease inhibitor E64 (50 μM given for the Cy5.5 conjugates), read-out: EC50, cytotoxicity to PC3flu cells + E64): 385 ± 5.3 nM; EC50 at 72 h ([5]; 72 h incubation, CCK-8, mean ± SD, read-out: EC50, cytotoxicity to PC3flu cells): 222 ± 2.8 nM; cleavage by cathepsin B (in words) (human liver cathepsin B): release of free MMAE; IC50 (PSMA): 4.34 nM
